The text below walks through data of patent EP2653477B1, “SCORPION ACTIVE PEPTIDES AND PREPARATION METHODS AND APPLICATIONS THEREOF” (Wuhan More Biotechnology Co., Ltd., priority 2010, dated 2012).

One data set has as its system rheumatoid arthritis. The experiment in a line: pristane-induced rheumatoid arthritis in SD rats, joint score and hind foot plantar swelling. The class given is in vivo. Further details: key to Score of joint: clinical score 1-4: 1 joint red/swollen=1 ... severe whole-limb arthritis=4. As to conditions: x±s, n=10; for Score of joint: arthritis rats, polypeptides 100 µg·kg^-1 (methotrexate 1.75 µg·kg^-1) subcutaneously once every day, score 1-4; for The swelling degree after the inflammation: volume difference of hind foot before and after the modeling. As for the experimental part: […] Female (♀) specific pathogen free (SPF) inbred line SD rats (Wuhan University Laboratory Animal Center), body weight 150±10 g, were selected, and pristane was injected intradermally at the base of the tail of rats in experimental groups at a dose of 0.2 ml/rat, after they were acclimatized in a clean-grade environment for 1 week. Rheumatoid arthritis appeared after the rats were raised for only 2 weeks.
The rats having arthritis were randomized into: normal control group (negative control group), model negative control group (model rat + normal saline), model positive control group (model rat + methotrexate), administration group A (model rat + ADMR-011 polypeptide), administration group B (model rat + ADMR-016 polypeptide), administration group C (model rat + ADMR-019 polypeptide), administration group D (model rat + ADMR-023 polypeptide), and administration group E (model rat + ADMR-028 polypeptide), 10 rats for each group. The administration groups were injected subcutaneously at a dose of 100 µg·kg^-1, once every day in the morning, and administered continuously; the normal control group and the model negative control group were injected subcutaneously with equivalent amount of normal saline; and the model positive control group were injected subcutaneously with methotrexate (MTX) at a dose of 1.75 µg·kg^-1, once every day, and administered continuously.
The highest clinical score for each animal was recorded, and the average value of them was taken to be the average clinical score. The scoring criteria were: one joint of a rat was red and swollen, 1 point; two joints of a rat were red and swollen, 2 points; all the joints of a rat were red and swollen, 3 points; severe arthritis in the entire limb of a rat, 4 points. Table 2. Arthritis scores for rats of various experimental groups (-x±s)
From day 8 of the experiment, the hind foot plantar volume of the rat was measured and recorded every other day for 21 consecutive days, and the swelling degree (mL) was calculated according to the volume difference before and after the modeling. Table 3. The swelling degree of rats in various experimental groups (-x±s)

The target in another data set is T1, potassium channel Kv1.3 (Homo sapiens, UniProt P22001).
T1 construct: expressed in transfected cells; host or cells: COS-7 cells, selected with 0.8 mg/mL geneticin
The experiment in a line: whole-cell patch clamp, inhibition of Kv1.3 current in transfected COS-7 cells. As to conditions: potassium channel Kv1.3 in COS-7 cells, read-out: polypeptide concentrations that inhibit the current by half (IC50 value). The class given is cell-based. On the procedure: COS-7 cells were cultured in a DMEM medium containing 10% fetal calf serum, at 37° C, 5% CO2. The recombinant plasmids of potassium channel Kv1.3 were transfected by using a Sofast™ transfection kit, and the transfected cells were selectively cultured in a medium containing 0.8 mg/mL geneticin. The pharmacological activities of scorpion active polypeptides ADMR-011, ADMR-016, ADMR-019, ADMR-023 and ADMR-028 were tested and analyzed by using an instrument of whole-cell patch clamp (EPC-10 dual-channel patch clamp amplifier HEKA, Elektronik, Lambrecht, Germany). The setting of the experimental parameters, the collecting of data, and the applying of stimulus were all controlled by Pulse software (Elektronik, Lambrecht, Germany). The filter of the instrument was set to be 10 kHz (Bessel), and the electrode impedance was 2∼5 MΩ. After the formation of giga-seal (1∼5 GΩ) between the electrode and cell membrane, an automatic c-fast was performed, and the membrane was broken by slightly applying negative pressure, then an automatic c-slow was performed. At a holding potential of -70 mV, depolarizing pulses, incrementing in 10 mV steps, with a step width of 80 ms , were given to stimulate from -60 mV to +50 mV, and the condition of current was observed. The polypeptides ADMR-011, ADMR-016 and ADMR-019 were accurately perfused, which was achieved by MPS-2 (INBIO Inc, Wuhan, China) perfusing system. After dissolving the three scorpion active polypeptides, they were applied by spraying via DAD Drug Application System (ALA), and the tip of the tube for drug application was about 100 µm away from the cell being recorded.
It can be known from Figure 16 to Figure 20 that, the pharmacological activity of ADMR-011 on potassium channel Kvl.3 was 91 pM, the pharmacological activity of ADMR-016 on potassium channel Kvl.3 was 2.58 nM, the pharmacological activity of ADMR-019 on potassium channel Kv1.3 was 1.41 nM, and the pharmacological activity of ADMR-023 and ADMR-028 on potassium channel Kvl.3 were 0.49 nM and 0.65 nM, respectively. Therefore, they are polypeptides with potent activity that are currently found internationally.
In general terms: Patch clamp records ionic current or voltage across a cell membrane.

Another data set relates to Kunming mice. Briefly: toxicity study in mice, single intraperitoneal injection, 7 days observation. The class given is in vivo. As to conditions: 10 mg/kg intraperitoneally once (100 times the dose for animal model), observed 7 days. On the procedure: 18∼20 g Kunming mice were selected, and divided into 4 groups, 8 male mice and 8 female mice for each group. The lyophilized powders of scorpion active polypeptides ADMR-011, ADMR-016, ADMR-019, ADMR-023 and ADMR-028 were dissolved with normal saline respectively, and the 3 groups of mice were injected intraperitoneally once respectively with polypeptide solution at a dose of 10 mg/kg (100 times of the dose for animal model), and the fourth group were injected with equivalent amount of normal saline as control.
After the administration, the respiration, motor and heartbeat in animals of all the groups were all normal, without significant abnormal reaction. 7 days after the administration, all the animals were conducted gross anatomy to observe the volume, color and texture of the main organs (heart, liver, spleen, lung, and kidney), and there was no macroscopic lesion. There were no significant difference between the 3 administration groups and the normal saline group.

Another data set relates to Wistar rat EAE model. Briefly: EAE (multiple sclerosis) model in Wistar rats induced by GPSCH-CFA, clinical scoring. It counts as in vivo. The note with it: 100 µg·kg^-1 subcutaneously once every day, x±s, n=10, score 0-5. An excerpt:
Experimental animals: female inbred line Wistar rats (6∼8 week old, body weigh 150±10 g) and guinea pigs (300∼400 g, purchased from Wuhan University Laboratory Animal Center) were selected.
Formulating a mixed emulsion of whole spinal cord homogenate - Freund's complete adjuvant (GPSCH-CFA): a guinea pig was executed, and the spinal cord was rapidly removed, and prepared into 50% PBS homogenate by a ultrasonic disruptor (Sonics & Materials Inc, America), which was mixed with equal amount of Freund's complete adjuvant (BCG vaccine 10 mg/ml), and was pushed back and forth with syringes until forming a water-in-oil emulsion.
Wistar rat EAE model induced by EAE: GPSCH-CFA emulsion was injected intradermally into the foot pads of both the hind legs of Wistar rats, or simultaneously injected intradermally about 1×10^10 pertussis vaccine. The rats were weighed every day, and observed for their neurological symptoms. Experimental autoimmune encephalomyelitis appeared after the rats had been raised for 2 weeks.
The rats with experimental autoimmune encephalomyelitis (EAE) were divided into […] groups randomly: normal control group (negative control group), model control group (model rats + normal saline), administration group A (model rats + ADMR-011 polypeptide), administration group B (model rats + ADMR-016 polypeptide), administration group C (model rats + ADMR-019 polypeptide), administration group D (model rats + ADMR-023 polypeptide), and administration group E (model rats + ADMR-028 polypeptide), 10 rats for each group. For the administration groups, polypeptides ADMR-011, ADMR-016, ADMR-019, ADMR-023 and ADMR-028 were injected subcutaneously respectively at a dose of 100 µg·kg^-1, once every day in the morning. For the normal control group and the model control group, equivalent amount of normal saline was injected subcutaneously, and administered continuously. […] The highest clinical score for each animal was recorded, and the average value of them was taken to be the average clinical score.
The scoring criteria were: without any clinical symptom, 0 point; disappearance of tension in the tail, and observable mild awkward gait, 1 point; weakness in both the hind limbs, which can recover after passive body flipping, 2 points; paralysis in both the hind limbs, which can not recover after passive body flipping, 3 points; tetraplegia accompanied by incontinence of urine and feces, 4 points; moribund state or death, 5 points. Table 1. Scores for rats of various experimental groups in the EAE model (-x±s)

Bridge positions count the residues as written; N and C are the ends. Peptide text beside a SMILES is read from it.

T1 sequence (P22001 whole entry): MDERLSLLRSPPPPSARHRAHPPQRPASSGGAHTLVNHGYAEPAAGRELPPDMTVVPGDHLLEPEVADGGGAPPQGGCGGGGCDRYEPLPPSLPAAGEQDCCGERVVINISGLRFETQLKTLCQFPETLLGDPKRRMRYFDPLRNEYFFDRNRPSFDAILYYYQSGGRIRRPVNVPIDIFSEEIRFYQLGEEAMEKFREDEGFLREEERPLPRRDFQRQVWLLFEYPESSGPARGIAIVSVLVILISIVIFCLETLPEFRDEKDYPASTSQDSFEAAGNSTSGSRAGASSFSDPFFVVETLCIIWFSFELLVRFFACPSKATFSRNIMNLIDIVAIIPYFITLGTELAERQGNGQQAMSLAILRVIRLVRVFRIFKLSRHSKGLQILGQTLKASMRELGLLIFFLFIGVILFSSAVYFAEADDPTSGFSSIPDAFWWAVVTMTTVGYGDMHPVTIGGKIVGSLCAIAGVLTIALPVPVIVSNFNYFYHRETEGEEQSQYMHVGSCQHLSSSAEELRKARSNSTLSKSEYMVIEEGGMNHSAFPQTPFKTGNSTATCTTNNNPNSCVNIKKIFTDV

Consider `CC[C@H](C)[C@H](NC(=O)CNC(=O)[C@@H](N)C(C)C)C(=O)N[C@@H](CC(N)=O)C(=O)N[C@H](C(=O)N[C@@H](CCC(N)=O)C(=O)N[C@H]1CSSC[C@@H]2NC(=O)[C@H](CCC(N)=O)NC(=O)CNC(=O)[C@H](Cc3ccccc3)NC(=O)[C@H](CCCNC(=N)N)NC(=O)[C@H](CCSC)NC(=O)CNC(=O)[C@H](C)NC(=O)[C@H](CC(=O)O)NC(=O)[C@H](CCCCN)NC(=O)[C@@H]3CSSC[C@@H](C(=O)N[C@H](C(=O)N4CCC[C@H]4C(=O)N[C@@H](CCCCN)C(=O)O)[C@@H](C)O)NC(=O)[C@H](CC(=O)O)NC(=O)[C@H](CSSC[C@H](NC(=O)[C@H](CCC(N)=O)NC(=O)[C@H](CCCNC(=N)N)NC(=O)[C@H](CO)NC(=O)[C@H](Cc4c[nH]cn4)NC(=O)[C@H](CC(N)=O)NC1=O)C(=O)N[C@@H](CC(C)C)C(=O)N[C@@H](CCCCN)C(=O)N1CCC[C@H]1C(=O)N3)NC(=O)[C@H]([C@@H](C)O)NC(=O)CNC(=O)[C@H](CC(N)=O)NC(=O)[C@H]([C@@H](C)CC)NC2=O)C(C)C` [ADMR-028] (H-VGINVQCNHSRQCLKPCKDAGMRFGQCINGTCDCTPK-OH; disulfide 7-27, 13-32, 17-34 (inferred); N-terminus and C-terminus assumed), for which the Score of joint with rheumatoid arthritis (10 d) is on record as 1.79±0.55; with rheumatoid arthritis (15 d), 2.11±0.45; with rheumatoid arthritis (21 d), 1.79±0.63. For the same compound, the “The swelling degree after the inflammation” value in the data set with rheumatoid arthritis (d8) stood at 0.037 ± 0.013 mL; in the data set with rheumatoid arthritis (d15), 0.28 ± 0.05 mL; with rheumatoid arthritis (d22), 0.38 ± 0.13 mL; in the data set with rheumatoid arthritis (d28) it was 0.31 ± 0.14 mL. Also, the IC50 at potassium channel Kv1.3 amounted to 0.65 nM. Also, the toxicity in mice entry in the data set on Kunming mice is on record as “no significant toxicity”. Besides, the Average clinical scores with Wistar rat EAE model (8 d) came out at 0.49±0.12; in the data set on Wistar rat EAE model (10 d) it was 0.95±0.22; with Wistar rat EAE model (12 d), 1.09±0.37; with Wistar rat EAE model (14 d), 1.13±0.29.
For `CC[C@H](C)[C@H](NC(=O)CNC(=O)[C@@H](N)C(C)C)C(=O)N[C@@H](CC(N)=O)C(=O)N[C@H](C(=O)N[C@@H](CCC(N)=O)C(=O)N[C@H]1CSSC[C@@H]2NC(=O)[C@H](CCC(N)=O)NC(=O)CNC(=O)[C@H](Cc3ccccc3)NC(=O)[C@H](CCCNC(=N)N)NC(=O)[C@H](CCSC)NC(=O)CNC(=O)[C@H](C)NC(=O)[C@H](CC(=O)O)NC(=O)[C@H](CCCCN)NC(=O)[C@@H]3CSSC[C@@H](C(=O)N[C@H](C(=O)N4CCC[C@H]4C(=O)N[C@@H](CCCCN)C(=O)O)[C@@H](C)O)NC(=O)[C@H](CC(=O)O)NC(=O)[C@H](CSSC[C@H](NC(=O)[C@H](CCC(N)=O)NC(=O)CNC(=O)[C@H](CO)NC(=O)[C@H]([C@@H](C)O)NC(=O)[C@H](CC(N)=O)NC1=O)C(=O)N[C@@H](CC(C)C)C(=O)N[C@@H](CCCCN)C(=O)N1CCC[C@H]1C(=O)N3)NC(=O)[C@H](CCCCN)NC(=O)CNC(=O)[C@H](CC(N)=O)NC(=O)[C@H]([C@@H](C)CC)NC2=O)C(C)C` [ADMR-016] (H-VGINVQCNTSGQCLKPCKDAGMRFGQCINGKCDCTPK-OH; disulfide 7-27, 13-32, 17-34 (inferred); N-terminus and C-terminus assumed), the values for the Score of joint in the data set with rheumatoid arthritis (10 d), in the data set on rheumatoid arthritis (15 d) and with rheumatoid arthritis (21 d) were 1.84±0.71, 2.24±0.53 and 1.96±0.62, respectively. Further, the “The swelling degree after the inflammation” value with rheumatoid arthritis (d8) came to 0.037 ± 0.012 mL; in the data set with rheumatoid arthritis (d15) it was 0.25 ± 0.07 mL; in the data set on rheumatoid arthritis (d22), 0.37 ± 0.08 mL; in the data set with rheumatoid arthritis (d28) it was 0.33 ± 0.12 mL. Also, the IC50 at potassium channel Kv1.3 was 2.58 nM. In addition, the toxicity in mice entry in the data set on Kunming mice is on record as “no significant toxicity”. Besides, the Average clinical scores is recorded as 0.50±0.23 with Wistar rat EAE model (8 d), 0.87±0.34 in the data set on Wistar rat EAE model (10 d), 1.31±0.42 with Wistar rat EAE model (12 d) and 1.21±0.49 in the data set with Wistar rat EAE model (14 d).
